Data reported in patent US4617994A, “Determining residual oil saturation by injecting CO2 and base generating reactant” (priority 1985, dated 1986).
Where two headings read alike, the source gives them in different places.

Format: physicochemical
[1] = 206 °F, pH 6.0, 50 psig, 0.5 M/L NaCl, 0.05 mol/liter base generator
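Note: hydrolysis of the base generator in aqueous solution, t1/2 given in hours as the time until half of it has reacted, with pH held steady during the run.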

Text: In each case, the solution was maintained at a pressure of 50 psig during the test. The pH of the solution was maintained substantially constant by adding portions at 0.1 mol/liter sodium bicarbonate solution to the system while the hydrolysis was proceeding. Each base generator solution consisted of water containing 0.5 mol/liter sodium chloride and 0.05 mols/liter of the base generator.
*^1 This is the time, in hours, required for the base generator to be
This is a convenient way to measure the speed of a reaction.

Compound: NC(N)=O [Urea]
- Half Life, t1/2 (0.5 m nacl water, pH 5.5): 8.4 h
- Half Life, t1/2 (0.5 m nacl water, pH 6.2): 12.3 h
- Half Life, t1/2 (0.5 m nacl water, pH 7): 45.2 h
- Half Life, t1/2 (0.5 m nacl water, pH 8): 15.9 h

Compound: O=N[O-].[Na+] [NaNO2, Sodium Nitrite]
- Half Life, t1/2 (212 °F, pH 6.0, 50 psig, 0.5 M/L NaCl, 0.05 mol/liter base generator): 80.0 h
- Half Life, t1/2 (279 °F, pH 5.5, 50 psig, 0.5 M/L NaCl, 0.05 mol/liter base generator): 17.5 h
- Half Life, t1/2 (279 °F, pH 6.0, 50 psig, 0.5 M/L NaCl, 0.05 mol/liter base generator): 49.2 h
- Half Life, t1/2 (279 °F, pH 7.0, 50 psig, 0.5 M/L NaCl, 0.05 mol/liter base generator): 141.4 h
- Half Life, t1/2 (280 °F, pH 6.5, 50 psig, 0.5 M/L NaCl, 0.05 mol/liter base generator): 84.9 h
- Half Life, t1/2 (296 °F, pH 6.5, 50 psig, 0.5 M/L NaCl, 0.05 mol/liter base generator): 73.2 h

Compound: CC1CO1 (stereo not shown) [Propylene oxide, Propylene Oxide]
- Half Life, t1/2 (76 °F, pH 7.0, 50 psig, 0.5 M/L NaCl, 0.05 mol/liter base generator): 86.1 h
- Half Life, t1/2 (106 °F, pH 6.0, 50 psig, 0.5 M/L NaCl, 0.05 mol/liter base generator): 26.5 h
- Half Life, t1/2 (122 °F, pH 6.0, 50 psig, 0.5 M/L NaCl, 0.05 mol/liter base generator): 26.0 h
- Half Life, t1/2 (122 °F, pH 7.0, 50 psig, 0.5 M/L NaCl, 0.05 mol/liter base generator): 35.6 h

Compound: O=C1C=CC(=O)N1 [Maleimide]
- Half Life, t1/2 (76 °F, pH 6.0, 50 psig, 0.5 M/L NaCl, 0.05 mol/liter base generator): 450.1 h
- Half Life, t1/2 (96 °F, pH 6.0, 50 psig, 0.5 M/L NaCl, 0.05 mol/liter base generator): 53.6 h
- Half Life, t1/2 (109 °F, pH 6.0, 50 psig, 0.5 M/L NaCl, 0.05 mol/liter base generator): 92.0 h
- Half Life, t1/2 (109 °F, pH 7.0, 50 psig, 0.5 M/L NaCl, 0.05 mol/liter base generator): 35.0 h
- Half Life, t1/2 (110 °F, pH 5.5, 50 psig, 0.5 M/L NaCl, 0.05 mol/liter base generator): 439.0 h
- Half Life, t1/2 (110 °F, pH 6.5, 50 psig, 0.5 M/L NaCl, 0.05 mol/liter base generator): 43.8 h
- Half Life, t1/2 (140 °F, pH 6.0, 50 psig, 0.5 M/L NaCl, 0.05 mol/liter base generator): 18.4 h
- Half Life, t1/2 [1]: too fast

Compound: N#CO [KOCN, Potassium Cyanate]
- Half Life, t1/2 (78 °F, pH 6.0, 50 psig, 0.5 M/L NaCl, 0.05 mol/liter base generator): 19.6 h
- Half Life, t1/2 (78 °F, pH 6.5, 50 psig, 0.5 M/L NaCl, 0.05 mol/liter base generator): 68.6 h
- Half Life, t1/2 (78 °F, pH 7.0, 50 psig, 0.5 M/L NaCl, 0.05 mol/liter base generator): 206.4 h
- Half Life, t1/2 (99 °F, pH 7.0, 50 psig, 0.5 M/L NaCl, 0.05 mol/liter base generator): ~ 94.0 hours
- Half Life, t1/2 (99 °F, pH 7.5, 50 psig, 0.5 M/L NaCl, 0.05 mol/liter base generator): ~ 223.0 hours
- Half Life, t1/2 (116 °F, pH 8.0, 50 psig, 0.5 M/L NaCl, 0.05 mol/liter base generator): ~ 223.0 hours

Compound: O=C1CCC(=O)N1 [Succinimide]
- Half Life, t1/2 (177 °F, pH 6.0, 50 psig, 0.5 M/L NaCl, 0.05 mol/liter base generator): 184.1 h
- Half Life, t1/2 (177 °F, pH 7.0, 50 psig, 0.5 M/L NaCl, 0.05 mol/liter base generator): 28.4 h
- Half Life, t1/2 [1]: 31.3 h
